SMILES strings stand for the structures.

6 compounds from patent US20100144674A1, “PYRIDAZINE DERIVATIVES” (SYNGENTA CROP PROTECTION, INC., priority 2006, published 2010) can be followed below.

One data set relates to Alternaria Solani. Nature of the data set: Alternaria solani / tomato / preventive. The class given is in vivo. The conditions noted are these: 96 h, preventive spray, tomato plants cv. Roter Gnom, assessed 4 days after inoculation, read-out: inhibit fungal infestation. The procedure:
Alternaria Solani/Tomato/Preventive (Action Against Alternaria on Tomato) 4 weeks old tomato plants cv. Roter Gnom are treated with the formulated test compound in a spray chamber. Two days after application tomato plants are inoculated by spraying a spore suspension on the test plants. After an incubation period of 4 days at 22° C./18° C. and 95% r. h. in a greenhouse the disease incidence is assessed.

The next data set concerns Botrytis Cinerea. Nature of the data set: Botrytis cinerea / tomato / preventive. It is filed as in vivo. The conditions noted are these: 72 h, preventive spray, tomato plants cv. Roter Gnom, assessed 3 days after inoculation, read-out: inhibit fungal infestation. The procedure: Botrytis Cinerea/Tomato/Preventive (Action Against Botrytis on Tomato) 4 weeks old tomato plants cv. Roter Gnom are treated with the formulated test compound in a spray chamber. Two days after application tomato plants are inoculated by spraying a spore suspension on the test plants. After an incubation period of 3 days at 20° C. and 95% r. h. in a greenhouse the disease incidence is assessed.

In another data set the test system is Puccinia Recondita. Briefly: Puccinia recondita / wheat / preventive (brown rust). It is filed as in vivo. The conditions noted are these: 264 h, preventive spray, wheat plants cv. Arina, assessed 11 days after inoculation, read-out: inhibits fungal infestation. The procedure: Puccinia Recondita/Wheat/Preventive (Action Against Brown Rust on Wheat) 1 week old wheat plants cv. Arina are treated with the formulated test compound in a spray chamber. One day after application wheat plants are inoculated by spraying a spore suspension ([…] uredospores/ml) on the test plants. After an incubation period of 1 day at 20° C. and 95% r. h. plants are kept for 10 days 20° C./18° C. (day/night) and 60% r.h. in a greenhouse. The disease incidence is assessed 11 days after inoculation.

Data set [1] relates to Magnaporthe Grisea (Pyricularia Oryzae). Nature of the data set: whole plant or invertebrate. The conditions noted are these: 144 h, read-out: inhibit fungal infestation. The class given is in vivo.
The test system of data set [2] is Pyrenophora Teres (Helminthosporium Teres). Nature of the data set: Pyrenophora teres (Helminthosporium teres) / barley / preventive (net blotch). The conditions noted are these: 96 h, preventive spray, barley plants cv. Regina, assessed 4 days after inoculation, read-out: inhibit fungal infestation. It is filed as in vivo. The procedure: Pyrenophora Teres (Helminthosporium Teres)/Barley/Preventive (Action Against Net Blotch on Barley) 1-week-old barley plants cv. Regina are treated with the formulated test compound in a spray chamber. Two days after application barley plants are inoculated by spraying a spore suspension (2.6×10^4 conidia/ml) on the test plants. After an incubation period of 4 days at 20° C. and 95% r. h. the disease incidence is assessed.

The next data set has as its system Septoria Tritici. Nature of the data set: Septoria tritici / wheat / preventive (Septoria leaf spot). It is filed as in vivo. The conditions noted are these: Zymoseptoria tritici, preventive spray, wheat plants cv. Riband, assessed 16-18 days after inoculation, read-out: inhibits fungal infestation. The procedure: Septoria Tritici/Wheat/Preventive (Action Against Septoria Leaf Spot on Wheat) 2 weeks old wheat plants cv. Riband are treated with the formulated test compound in a spray chamber. One day after application wheat plants are inoculated by spraying a spore suspension (10^6 conidia/ml) on the test plants. After an incubation period of 1 day at 22° C./21° C. and 95% r. h. plants are kept at 22° C./21° C. and 70% r.h. in a greenhouse. The disease incidence is assessed 16-18 days after inoculation.

The next data set deals with Uncinula Necator. Nature of the data set: Uncinula necator / grape / preventive (powdery mildew). It is filed as in vivo. Conditions: Erysiphe necator, 168 h, preventive spray, grape seedlings cv. Gutedel, assessed 7 days after inoculation, read-out: inhibit fungal infestation. The procedure:
Uncinula Necator/Grape/Preventive (Action Against Powdery Mildew on Grape) 5 weeks old grape seedlings cv. Gutedel are treated with the formulated test compound in a spray chamber. One day after application grape plants are inoculated by shaking plants infected with grape powdery mildew above the test plants. After an incubation period of 7 days at 24° C./22° C. and 70% r. h. under a light regime of 14/10 h (light/dark) the disease incidence is assessed.

The compound `Cc1n[nH]c(=O)c(-c2c(F)cc(F)cc2F)c1-c1ccc2ccccc2c1` [I.ae.196, 6-methyl-5-naphthalen-2-yl-4-(2,4,6-trifluorophenyl)-2H-pyridazin-3-one] came in with a melting point of 266 to 268 °C.
`Cc1nnc(Cl)c(-c2c(F)cc(F)cc2F)c1-c1ccc2ccccc2c1` [I.ae.198, 3-chloro-6-methyl-5-naphthalen-2-yl-4-(2,4,6-trifluorophenyl)-pyridazine] registered a melting point of 86 to 89 °C. Also, the inhibition at 200 ppm with Alternaria Solani is at least 80%. In addition, in the data set on Botrytis Cinerea, the inhibition at 200 ppm was at least 80%. Also, the inhibition at 200 ppm with Puccinia Recondita was at least 80%. The inhibition at 200 ppm in data set [1] was at least 80%. For the same compound, the inhibition at 200 ppm in data set [2] is at least 80%. In the data set on Septoria Tritici, the inhibition at 200 ppm was at least 80%. Further, the inhibition at 200 ppm in the data set with Uncinula Necator is at least 80%.
Take `COc1nnc(C)c(-c2ccc3ccccc3c2)c1-c1c(F)cc(F)cc1F` [I.ae.199, 3-methoxy-6-methyl-5-naphthalen-2-yl-4-(2,4,6-trifluorophenyl)-pyridazine]: the melting point fell in the range of 138 to 140 °C. Moreover, in the data set on Alternaria Solani, the inhibition at 200 ppm was at least 80%. Moreover, the inhibition at 200 ppm with Botrytis Cinerea was at least 80%. The inhibition at 200 ppm in data set [2] is at least 80%. In addition, in the data set on Uncinula Necator, the inhibition at 200 ppm was at least 80%.
The compound `Cc1nnc(F)c(-c2c(F)cc(F)cc2F)c1-c1ccc2ccccc2c1` [I.ae.197, 3-fluoro-6-methyl-5-naphthalen-2-yl-4-(2,4,6-trifluorophenyl)-pyridazine] showed a melting point of 108 to 110 °C. For the same compound, in the data set with Botrytis Cinerea, the inhibition at 200 ppm is at least 80%. The inhibition at 200 ppm with Puccinia Recondita was at least 80%. In addition, the inhibition at 200 ppm in data set [1] was at least 80%. The inhibition at 200 ppm in data set [2] is at least 80%. For the same compound, the inhibition at 200 ppm in the data set on Septoria Tritici was at least 80%.
Regarding `Cc1nnc(C)c(-c2c(F)cccc2Cl)c1-c1ccc2ccccc2c1` [I.ae.080, 4-(2-chloro-6-fluorophenyl)-3,6-dimethyl-5-naphthalen-2-yl-pyridazine], the melting point fell in the range of 120 to 123 °C. Also, in the data set on Alternaria Solani, the inhibition at 200 ppm is at least 80%. Also, the inhibition at 200 ppm in data set [1] was at least 80%. Further, the inhibition at 200 ppm in the data set with Septoria Tritici is at least 80%.
`COc1nnc(C)c(-c2ccc3ccccc3c2)c1-c1c(F)cccc1Cl` [I.ae.079, 4-(2-chloro-6-fluorophenyl)-3-methoxy-6-methyl-5-naphthalen-2-yl-pyridazine] came in with a melting point of 182 to 184 °C. The inhibition at 200 ppm with Botrytis Cinerea was at least 80%. Moreover, in data set [1], the inhibition at 200 ppm is at least 80%. Also, the inhibition at 200 ppm with Uncinula Necator was at least 80%.

The melting point is the temperature of the solid-liquid transition.
